This note sets out measurements from PubChem BioAssay AID434987 (Southern Research Specialized Biocontainment Screening …, 2010).

For this test, the system named is M. tuberculosis H37Rv growth inhibition with meropenem. Put plainly: dose response, H37Rv, with and without meropenem (AID 434987).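 Note: growth over 7 days at 37 °C before Alamar Blue read on day 9.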
Where [1] appears, read: M. tuberculosis H37Rv growth inhibition, measured here: IC50 without meropenem.
Where [2] appears, read: M. tuberculosis H37Rv growth inhibition, measured here: IC90 without meropenem.
[3] abbreviates: measured here: IC90 with meropenem.

The source made the active and inactive calls. The rule behind the calls is not given here.

What is called IC50 is the point on the concentration scale where inhibition reaches its midpoint. A word on the IC90: it is the point of the concentration-response curve where the effect stands at 90%. High values mean weaker potency, low ones greater potency. With `Cn1c2ccccc2c(=O)c2cc(C#CC3(O)CCCCC3)ccc21`, the IC50 is > 100 µM (inactive). Also, the IC50 under setting [1] is > 100 µM. For the same compound, the IC90 under setting [2] was > 100 µM. Also, the IC90 under setting [3] is > 100 µM.

In the case of `CC(C)Cn1c2c(c(O)c(C(=O)Nc3nccs3)c1=O)CCCC2`, the IC50 was 3.22 µM. This compound displayed an IC50 under setting [1] of 45.7 µM. The compound further showed an IC90 under setting [2] of 52.4 µM. The IC90 under setting [3] is > 100 µM.

Regarding `CCOC(=O)/C(=N\Nc1ccccc1)c1csc(Nc2ccc(C)cc2)n1`, the IC50 is > 100 µM (inactive). Further, under setting [1], the IC50 is > 100 µM. The IC90 under setting [2] was > 100 µM. The IC90 under setting [3] was > 100 µM.

Take `O=C1N/C(=N\N=C\c2ccc3ncccc3c2)SC1Cc1ccc(SC(F)F)cc1` (stereo not drawn): the IC50 is > 100 µM (inactive). Further, the IC50 under setting [1] was > 100 µM. Moreover, the IC90 under setting [2] is > 100 µM. The IC90 under setting [3] was > 100 µM.

On to `CCCn1nc(NC(=O)c2ccco2)c2cc3cc(C)ccc3nc21`, for which the IC50 is > 100 µM (inactive). In addition, the IC50 under setting [1] is > 100 µM. Also, under setting [2], the IC90 was > 100 µM. For the same compound, the IC90 under setting [3] is > 100 µM.

As to `Cc1cc(C=C2C(=O)NC(=S)NC2=O)c(C)n1-c1ccc2c(c1)OCO2`, the IC50 was 12.7 µM (inactive). This compound also came in with an IC50 under setting [1] of 24.3 µM. For the same compound, the IC90 under setting [2] was 25.3 µM. For the same compound, under setting [3], the IC90 was determined as 14.5 µM.

For `Cn1c(O)c(C2=c3ccccc3=NC2=O)[nH]c1=S`, the IC50 is 16.6 µM. The IC50 under setting [1] was > 100 µM. Moreover, the IC90 under setting [2] was > 100 µM. Also, under setting [3], the IC90 is > 100 µM.

Turning to `Cc1ccc(/C=N\NC(=O)c2csnn2)cc1`, the IC50 was 66.4 µM (inactive). Moreover, the IC50 under setting [1] is > 100 µM. In addition, under setting [2], the IC90 was > 100 µM. Further, the IC90 under setting [3] was > 100 µM.

Consider `COc1ccc(/C=C/C(=O)NCC(=O)N/N=C/c2cc(Br)ccc2OCc2ccccc2)cc1`, for which the IC50 is > 100 µM (inactive). The IC50 under setting [1] was > 100 µM. The IC90 under setting [2] was > 100 µM. Further, the IC90 under setting [3] is > 100 µM.

As to `COCCNC(=O)c1ccc(NC(=O)C2(c3ccccc3)CCCC2)cc1`, the half-inhibitory concentration (IC50) was 8.1 µM. Under setting [1], the IC50 amounted to 33.4 µM. Besides, the IC90 under setting [2] is > 100 µM. The IC90 under setting [3] is > 100 µM.

On to `O=C(N/N=C/C(Br)=C\c1ccccc1)c1ccc2nc[nH]c2c1`, for which the IC50 is 30.4 µM. Under setting [1], the IC50 is > 100 µM. The IC90 under setting [2] was > 100 µM. Also, the IC90 under setting [3] is > 100 µM.

For the compound `Brc1ccc(CNc2ccc3ncccc3c2)cc1`, the IC50 was > 100 µM (inactive). For the same compound, the IC50 under setting [1] is > 100 µM. Under setting [2], the IC90 is > 100 µM. For the same compound, the IC90 under setting [3] is > 100 µM.

With `CC(=O)Nc1scc(C)c1-c1nc2ccccc2s1`, the IC50 was > 100 µM (inactive). For the same compound, the half-inhibitory concentration (IC50) under setting [1] is > 100 µM. In addition, under setting [2], the IC90 was > 100 µM. Further, the IC90 under setting [3] is > 100 µM.

For `COc1ccc(NC(=O)CSc2nncn2C)c([N+](=O)[O-])c1`, the IC50 was 44.5 µM (inactive). This compound also had an IC50 under setting [1] of 90.1 µM. Also, the IC90 under setting [2] is > 100 µM. Besides, the IC90 under setting [3] was > 100 µM.

Take `COc1ccc(C(=O)/C=C/c2cccs2)c(OC(=O)c2cccc([N+](=O)[O-])c2)c1`: the IC50 was 29.5 µM (inactive). Also, the IC50 under setting [1] worked out at 54.8 µM. Besides, the concentration for an effect of 90% (IC90) under setting [2] was 85.2 µM. Also, the IC90 under setting [3] was > 100 µM.

Consider `c1ccc(-c2cc(N3CCOCC3)nc3ccccc23)cc1`, for which the IC50 is 2.78 µM. Moreover, the IC50 under setting [1] is > 100 µM. The IC90 under setting [2] was > 100 µM. Besides, under setting [3], the IC90 turned out to be 91.5 µM.

`COc1cccc(C(=O)C2CCCN(Cc3ccccn3)C2)c1` (stereo not drawn): the IC50 was 1.46 µM. Under setting [1], this compound had an IC50 of 16.2 µM. Under setting [2], the IC90 was > 100 µM. The compound also gave an IC90 under setting [3] of 97.5 µM.

On to `Cc1cccc(C)c1NC(=O)C1CC2CCC1C2` (stereo not drawn), for which the IC50 was > 100 µM (inactive). Also, under setting [1], the IC50 was > 100 µM. Under setting [2], the IC90 is > 100 µM. The IC90 under setting [3] is > 100 µM.

As for `COc1ccc(OC)c(C2CC(c3c(-c4ccccc4)c4cc(Cl)ccc4[nH]c3=O)=NN2S(C)(=O)=O)c1` (stereo not drawn), the IC50 is > 100 µM (inactive). Moreover, the IC50 under setting [1] was > 100 µM. Moreover, under setting [2], the IC90 is > 100 µM. Besides, under setting [3], the IC90 is > 100 µM.

As to `Cc1cc(C(=O)Nc2ccc(Br)cc2F)n(-c2ccccc2)n1`, the IC50 was > 100 µM (inactive). In addition, the IC50 under setting [1] is > 100 µM. Under setting [2], the IC90 was > 100 µM. Besides, the IC90 under setting [3] is > 100 µM.

On to `CCOC(=O)c1sc(NC(=O)CN2CCCC2)c(C(=O)OCC)c1C`, for which the IC50 is > 100 µM (inactive). Moreover, the IC50 under setting [1] was > 100 µM. In addition, the IC90 under setting [2] was > 100 µM. Also, under setting [3], the IC90 was > 100 µM.

For `O=C(N/N=C/c1cc([N+](=O)[O-])ccc1O)C1CC1`, the IC50 is 4.14 µM. Under setting [1], this compound showed an IC50 of 58.9 µM. Further, under setting [2], the IC90 is > 100 µM. The IC90 under setting [3] is > 100 µM.
